≈ marks a conversion by molar mass, not a printed value.
What was measured:
CMV = assay: Plaque Reduction Test for Cytomegalovirus (AD-169 strain) in MRC-5 cells; assay type: cell-based; conditions: Human betaherpesvirus 5, AD169, MRC5
Description: MRC-5 cells were grown to confluence in 24 well multi-dishes (well diameter=1.5 cm). The drained cell monolayers were each infected with approximately 50 infectious particles of cytomegalovirus (CMV; AD-169 strain) in 100 μl of phosphate-buffered saline. The virus was adsorbed for 1 hour at room temperature. After adsorption, residual inoculum was removed from each well and replaced with 1 ml of Eagle's MEM containing 10% heat inactivated foetal calf serum and 0.9% agarose (A37). Once the agarose had set, dilutions of the test compound, which had been prepared in Eagle's MEM (containing 10% heat-inactivated calf serum), were added, each well receiving 1 ml of liquid overlay. The test compound was diluted to give the following series of concentrations: 200, 60, 20, 6 . . . 0.06 μg/ml; final concentrations in the assay range, therefore, between 100 μg/ml and 0.03 μg/ml. The infected cultures were incubated at 37° C. in a humidified atmosphere containing 5% CO2 until plaques were clearly visible (about 12 days). The cultures are fixed in formol saline, the agarose overlays were carefully washed off, and then the cell monolayers were stained with carbol fuchsin. A stereo microscope was used to count plaques. The IC50 (concentration of drug which inhibits the number of plaques formed by 50% relative to the number of plaques observed in virus control monolayers) of the test compound was calculated. In addition, the monolayers were examined for evidence of drug-induced cytotoxicity; the minimum concentration at which cytotoxicity occurs was recorded.

[1] = Cytotoxicity for the cell monolayers in the FIV test; assay type: cell-based; conditions: cat, crandell feline kidney cells, no cytotoxicity noted with concentrations up to this value, read-out: cytotoxicity for the cell monolayers
Description: Drug stocks were diluted to the appropriate concentration, in medium (e.g. 10 mg/ml to 200 μg/ml). 150 μl of each drug was dispersed in triplicate, across the top row of a microtitre plate (150 μl of media for virus and cell control, vc and cc). 100 μl of medium was dispersed into all other wells. The wells were serially diluted moving down the plate, removing 50 μl from each well and transferring to the next row. 50 μl was discarded from the bottom wells.
Trypsinisation was carried out from a confluent cell monolayer of Crandell Feline Kidney cells, in 10% trypsin, followed by resuspension in media at 1×10^6 per ml, ensuring that a single cell suspension is achieved. (Media: 90% 1×RPMI, 25 mM hepes buffer; 10% Foetal calf serum; 2% Glutamine; 2% penecillin/streptomycin.)
FIV Glasgow 8 virus was diluted to 4× the required virus challenge in medium (40 TCID50 /ml). The virus infected medium was mixed with an equal volume of cell suspension, 100 μl of which was aliquoted into each well of the drug plate, except cell control. 100 μl of cell suspension at 5×10^4 per ml was added to the latter. This gives a final cell concentration of 2.5×10^4 per ml, and drug range 100-0.03 μg/ml. The plates were incubated at 37° C., 5% CO2 in an air humidified incabator for 11-14 days. The cells were fixed by immersing the plates in formoli saline (10% formaldehyde; 10% 1.5M NaCl; 80% water) for 1 hour minimum. The cells were stained with 10% crystal violet for 15 minutes.
The assay was scored by looking for presence of syncitia and, virus induced cytopathic effect in the cell monolayers, under a microscope. Results are given as the minimum concentration of drug inhibiting syncitial production, minimum inhibitory concentration, MIC.

Nc1nc2c(ncn2OCC/C=C/P(=O)(O)O)c(=O)[nH]1 [Example 1, (E)-9-(4-phosphonobut-3-enyloxy)guanine]
IC50 (CMV): 0.16 µg/mL (≈ 0.531 µM) | MCC [1]: > 100 µg/mL

From patent US5356886A, “Antiviral phosphono-alken derivatives of purines” (Beecham Group p.l.c., priority 1990, dated 1994)
